Data reported in publication PMC12314110, “Evaluation of Potential Effects of CYP3A Inhibition and CYP3A Induction on the Pharmacokinetics of Fruquintinib in Healthy Subjects” (Clinical Pharmacology in Drug Development, 2025).

Columns and labels:
[1] = Safety assessments (adverse events) in healthy subjects; assay type: in vivo, human; settings: Part B, after rifampin alone (Treatment Period 2); back pain, 1/14 subjects, mild (Grade 1), unrelated to study treatment
Procedure: Safety was assessed by evaluation of adverse events (AEs), serious AEs, AEs of special interest, physical examinations, vital signs, single 12‐lead electrocardiograms and cardiac monitoring, and clinical laboratory data. All AEs were coded using the Medical Dictionary for Regulatory Activities Version 23.0, and their severity was graded using the National Cancer Institute Common Terminology Criteria for Adverse Events Version 5.0.

[2] = parameters: method as in PMID 9925057; settings: cited from earlier work

CO[C@H]1/C=C/O[C@@]2(C)Oc3c(C)c(O)c4c(O)c(c(/C=N/N5CCN(C)CC5)c(O)c4c3C2=O)NC(=O)/C(C)=C\C=C\[C@H](C)[C@H](O)[C@@H](C)[C@@H](O)[C@@H](C)[C@H](OC(C)=O)[C@@H]1C [rifampin, reference compound]
treatment‐emergent AE incidence [1]: 7.1%
reduction of absorption when ingested with food [2]: approximately 30%
